{
  "source": "patent US9206100B2",
  "about": "“Route to synthetic analogues of Rocaglamide and Aglafoline using cascade transformations initiated by oxy-cope rearrangement of bis-alkynes” (The Florida State University Research Foundation, Inc., priority 2010, dated 2015)",
  "origin": "cited, not measured here",
  "test_system": "various human leukemia cell lines",
  "details": "through the intrinsic death pathway; human leukemia cell lines and ALL, CML and AML cells freshly isolated from patients",
  "data": [
    {"smiles": "COc1ccc([C@@]23Oc4cc(OC)cc(OC)c4[C@]2(O)[C@H](O)[C@H](C(=O)N(C)C)[C@H]3c2ccccc2)cc1", "note": "[Rocaglamide]", "values": [
      {"measurement": "apoptosis induction", "value": "induces apoptosis"}
    ]}
  ]
}
